From US10829796B2, “Bacteria identification and antimicrobial susceptibility test” (priority 2015, dated 2020)

Test system: Streptococcus uberis
Test: Group D Streptococci identification, esculin/ferric citrate in TSB (blackening = growth), bacteria in milk
Type: cell-based
Details: TSB containing 0.5% esculin and 0.25% ferric citrate + 80 uL spiked milk; 100 ug/ml aztreonam and/or 0.5 mg/mL phenol red
Method: By way of illustration, the same experiment was conducted as above, only this time using clinical milk samples obtained from a bovine animal suspect of being infected with mastitis.
However, Applicant has discovered that increased amounts of esculin and ferric citrate may be used in milk derived clinical samples. For example, at concentrations of at least 2% esculin and 1% ferric citrate, the growth of Streptococcus uberis is not inhibited.
Note, in the experiments above, the clinical sample tested was milk obtained from a bovine animal suspected of being infected by mastitis. If a non-milk clinical sample were to be tested, then inclusion of a stabilizing agent (e.g. milk in the form of a liquid or powder) would be required in order to suppress the growth inhibitory effect of esculin and ferric citrate at the higher concentrations used according to this invention.
Applicant further discovered that TSB containing 0.5% esculin and 0.25% ferric citrate and 80 uL of spiked Streptococcus uberis milk sample which also contained 100 ug/ml aztreonam concentration (antibiotic which has activity against many gram-bacteria such as E. coli) and/or in combination with 0.5 mg/mL phenol red led to easy detectable colour changes. No inhibition of Streptococcus uberis due to phenol red or aztreonam was detected.

Question: For C[C@H]1[C@H](NC(=O)/C(=N\OC(C)(C)C(=O)O)c2csc(N)n2)C(=O)N1S(=O)(=O)O [aztreonam], which “Inhibition of Streptococcus uberis” value is on record?
Answer: No inhibition
